Source: patent US20240398783A1, “Compounds and Pharmaceutical Compositions Comprising Inhibitors of Amyloid Peptide Interactions with Glycosaminoglycans, Methods of Treatment and Use Thereof” (Gismo Therapeutics, Inc., priority 2021, published 2024)
pIC50: −log10 of the molar value. Structures can show the parent of a compound that is named as a salt. Where two headings read alike, the source gives them in different places.

How the values were obtained:
[1] = molecular target: T1, SAA binding to heparin (HS-GAG) (Homo sapiens, UniProt P0DJI8); test: Inhibition of SAA binding to immobilized heparin-BSA (ELISA); design: species or system porcine
T1 sequence (P0DJI8 19-122): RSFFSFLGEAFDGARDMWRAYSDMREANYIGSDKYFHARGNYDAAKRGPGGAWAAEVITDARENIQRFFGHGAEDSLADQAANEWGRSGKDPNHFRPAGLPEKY
Description: (§1) Porcine intestinal mucosa heparin conjugated to Bovine Serum Albumin (Heparin-BSA) was prepared as described (Najjam, S. et al. 1997, Cytokine 12, 1013-1022). Heparin is a sulfated HS-GAG and is commonly used as a HS-GAG in biochemical and binding assays (Lindahl, U. and Kjellen, L. (2013) ibid). Heparin-BSA at 0.01 mg/ml in Phosphate Buffered Saline (PBS; pH 7.4) was added to a 96 well polystyrene ELISA plate (NUNC Cat. No. 449824; 100 μl per well) and incubated Over Night (ON) at 4 degrees Celsius. For negative controls, ELISA plates were coated with BSA instead of Heparin-BSA, using the same procedure. Following the incubation, the plate was washed consecutively, by immersion, with de-ionized water and PBS (pH 7.4). The ELISA plate was then blocked with nonfat milk (2%, 200 μl per well) for 2 hours at Room Temperature (RT) with gentle shaking. Following blocking, the plate was washed with de-ionized water then PBS (pH 7.4). GBAPs were dissolved and diluted in PBS (pH 6.5, supplemented with 0.1% BSA) at desired concentrations, added to the ELISA plates containing immobilized Heparin-BSA (100 μl per well) and incubated for 2 hours at RT with gentle shaking. Following incubation, the plate was washed with de-ionized water and three times with PBS (pH 6.5) plus Tween. Bound GBAP was detected by a monoclonal antibody specific for that GBAP, followed by incubation with secondary antibody conjugated to horseradish peroxidase (HRP). Antibody was diluted in PBS (pH 6.5 supplemented with 1% BSA). Following each incubation with antibody, the plate was washed with de-ionized water and three times with PBS (pH 6.5) wash buffer containing 0.1% Tween. The peroxidase substrate chromogen, TMB (Dako Cat. No. S1599) was added (100 μl per well) to the ELISA plate and incubated at room temperature. After 5 minutes ELISA Stop Solution (hydrochloric acid 1N, sulfuric acid 3N) was added (100 μl per well) to stop the peroxidase catalyzed colorimetric reaction. The Optical Density of the samples was measured at 450 nm using an ELISA plate reader (BioTek Synergy H1). Following color development, the % inhibition compared to control (BSA-coated plates) was determined. IC-50s were calculated using GraphPad Prism software.
The assay was performed as described in Example 43, with the following modifications. Following to coating the plates with Heparin-BSA, plates were washed as described. The compounds were dissolved in DMSO at 10 mM final concentration and further diluted prior to assay. DMSO concentration in the screening well was up to 2%. Individual compounds were co-incubated with SAA on plates containing immobilized heparin. Serum amyloid A (SAA) from PeProtech (NJ, USA, Cat. No. 300-53) was dissolved in DMSO, quickly frozen and kept in aliquots at −80 degrees Celsius. SAA dissolved in Tris buffer (pH 6.5, supplemented with BSA, 0.1%) was added to the ELISA plate (100 μl per well) and incubated for 2 hours at RT with gentle shaking. Following the incubation, the plate was washed with de-ionized water and three times with Tris Buffered Saline (TBS, pH 6.5) plus Tween. Bound SAA was detected by Anti-SAA Monoclonal Antibody (R&D System Cat. No. MAB30192), followed by secondary anti-IgG antibody conjugated to HRP (R&D System, Cat. No. HAF007). Antibody was diluted in TBS antibody buffer (pH6.5 supplemented with 1% BSA). Following each incubation with antibody, the plate was washed with de-ionized water and three times with TBS (pH6.5) wash buffer containing 0.1% Tween. Following to color development with TMB, as described in Example 43, the Optical Density of the samples was measured at 450 nm using an ELISA plate reader. Following color development, the % inhibition compared to control (no compound, DMSO control) for every compound was determined.
As described in Example 43, Heparin in the form of Heparin-BSA conjugate is used as a source of HS-GAG. For each compound IC-50 value in SAA—heparin-BSA binding assay is shown in μM (micromolar). […]

[2] = molecular target: Alpha-Synuclein Protofibril binding to heparin (HS-GAG) (Homo sapiens, UniProt P37840); test: Inhibition of alpha-synuclein protofibril binding to immobilized heparin-BSA (ELISA); design: species or system porcine; details: for inhibition at 30 µM: read-out: Alpha-Synuclein/Heparin Activity (% inhibition class)
Description: as §1
The assay was performed as described in Example 43, with the following modifications. Following to coating the plates with Heparin-BSA, plates were washed as described. The compounds were dissolved in DMSO at 10 mM final concentration and further diluted prior to assay. DMSO concentration in the screening well was up to […]. Individual compounds were co-incubated with alpha-synuclein on plates containing immobilized heparin. Alpha-synuclein purchased from rPeptide (Cat. No. S1001) was used to prepare protofibrils as described in Ihse et al., 2017. Alpha-synuclein was dissolved in PBS (pH7.4) to a concentration of 140 μM (˜2 mg/ml), and incubated for 7 days at 37° C. with rotary agitation (400 rpm). Resulting fibrils were sonicated for 10 minutes in ultrasonic water bath, quickly frozen and kept in aliquots at −80 degrees Celsius. Protofibrillar alpha-synuclein diluted in PBS (pH 6.5, supplemented with BSA, 0.1%) was added to the ELISA plate (100 μl per well) and incubated for 2 hours at RT with gentle shaking. Following the incubation, the plate was washed with de-ionized water and three times with PBS (pH 6.5) plus Tween. Bound Alpha-synuclein was detected by Anti-Alpha-synuclein Monoclonal Antibody 211 (Santa Cruz Cat. No. sc-12767), followed by secondary anti-IgG antibody conjugated to HRP (R&D System, Cat. No. HAF007). Following to color development with TMB, as described in Example 43, the Optical Density of the samples was measured at 450 nm using an ELISA plate reader. Following color development, the % inhibition compared to control (no compound, DMSO control) for every compound was determined.
An example of inhibition curve is shown in FIG. 1 for Inhibitor Compounds 22 and 24. […]

[3] = read-out: Serum Amyloid A/Heparin Activity (IC-50); SAA, heparin-BSA
[4] = read-out: Serum Amyloid A/Heparin Activity (% inhibition class)
[5] = SAA, heparin-BSA; read-out: Serum Amyloid A/Heparin Activity (IC-50)
[6] = alpha-synuclein protofibrils, heparin-BSA, read-out: Alpha-Synuclein/Heparin Activity (IC-50)
[7] = Alpha-Synuclein/Heparin Activity (IC-50), alpha-synuclein protofibrils, heparin-BSA
[8] = 30 μM compound, alpha-synuclein protofibrils, heparin-BSA

| Compound | pIC50 [1, 3] | inhibition at 30 µM [2] [%] | also measured |
| --- | --- | --- | --- |
| COc1ccc2c(NN=Cc3ccc(-n4ccnc4)c(C)c3)ccnc2c1 [Compound 12, 4-(2-(4-(1H-imidazol-1-yl)-3-methylbenzylidene)hydrazineyl)-7-methoxyquinoline] | 4.50 | < 30 |  |
| C/C(=N\Nc1ncnc2cc(Cl)ccc12)c1ccc(-n2cncn2)nc1 [Compound 32, (E)-4-(2-(1-(6-(1H-1,2,4-triazol-1-yl)pyridin-3-yl)ethylidene)hydrazineyl)-7-chloroquinazoline] |  | > 30 | inhibition at 30 µM [1, 4]: > 30% |
| C/C(=N\Nc1nncc2cc(Cl)ccc12)c1ccc(-n2cc(C)nc2C)nc1 [Compound 24, (E)-6-chloro-1-(2-(1-(6-(2,4-dimethyl-1H-imidazol-1-yl)pyridin-3-yl)ethylidene)hydrazineyl)phthalazine] |  |  | pIC50 [1, 5]: 5.10; pIC50 [2, 6]: 5.19 |
| C[n+]1ccn(-c2ccc(Nc3ncnc4cc(Cl)ccc34)cn2)c1 [Compound 43, 1-(5-((7-chloroquinazolin-4-yl)amino)pyridin-2-yl)-3-methyl-1H-imidazol-3-ium iodide phosphoric acid salt] | 4.50 | < 30 |  |
| CC(=NNc1ccnc2cc(Cl)ccc12)c1ccc(-n2cnc(C)c2C)nc1 [Compound 22, 7-chloro-4-(2-(1-(6-(4,5-dimethyl-1H-imidazol-1-yl)pyridin-3-yl)ethylidene)hydrazineyl)quinoline] | 4.08 |  | pIC50 [2, 7]: 5.54 |
| Fc1ccc2c(N/N=C/c3ccc(CN4CCOCC4)cc3)ccnc2c1 [Compound 6, (E)-4-(4-((2-(7-fluoroquinolin-4-yl)hydrazono)methyl)benzyl)morpholine] |  |  | inhibition at 30 µM ([1]; 30 μM compound; SAA, heparin-BSA; read-out: Serum Amyloid A/Heparin Activity (% inhibition class)): > 30%; inhibition at 30 µM [2, 8]: > 30% |
| COc1cc(Nc2cncc3cc(Cl)ccc23)cnc1-n1cnc(C)c1C [Compound 33, 7-chloro-N-(6-(4,5-dimethyl-1H-imidazol-1-yl)-5-methoxypyridin-3-yl)isoquinolin-4-amine phosphoric acid salt] |  | < 30 | inhibition at 30 µM [1, 4]: < 30% |
| C/C(=N\Nc1ncnc2cc(Cl)ccc12)c1ccc(-n2cc[n+](C)c2)nc1 [Compound 17, (E)-1-(5-(1-(2-(7-chloroquinazolin-4-yl)hydrazineylidene)ethyl)pyridin-2-yl)-3-methyl-1H-imidazol-3-ium iodide phosphoric acid salt] | 4.46 |  | pIC50 [2, 7]: 4.87 |
| CN(C)Cc1cc(Nc2ccnc3cc(Cl)ccc23)ccn1 [Compound 45, 7-chloro-N-(2-((dimethylamino)methyl)pyridin-4-yl)quinolin-4-amine] | 4.20 |  | inhibition at 30 µM [2, 8]: < 30% |
| C/C(=N\Nc1ncnc2ccccc12)c1ccc(-n2cc(C)nc2C)nc1 [Compound 19, (E)-4-(2-(1-(6-(2,4-dimethyl-1H-imidazol-1-yl)pyridin-3-yl)ethylidene)hydrazineyl)quinazoline] | 5.07 | < 30 |  |
| Clc1ccc2c(N/N=C/c3ccc(-n4ccnc4)nc3)ccnc2c1 [Compound 14, (E)-4-(2-((6-(1H-imidazol-1-yl)pyridin-3-yl)methylene)hydrazineyl)-7-chloroquinoline hydrochloride] | 5.12 |  | pIC50 [2, 7]: 5.69 |
| C/C(=N\Nc1ncnc2cc(F)ccc12)c1ccc(-n2cnc(C)c2C)nc1 [Compound 21, (E)-4-(2-(1-(6-(4,5-dimethyl-1H-imidazol-1-yl)pyridin-3-yl)ethylidene)hydrazineyl)-7-fluoroquinazoline] |  |  | pIC50 [1, 5]: 4.07; pIC50 [2, 6]: 5.69 |
| Cc1cn(-c2ccc(Nc3cncc4cc(Cl)ccc34)cn2)c(C)n1 [Compound 37, 7-chloro-N-(6-(2,4-dimethyl-1H-imidazol-1-yl)pyridin-3-yl)isoquinolin-4-amine phosphoric acid salt] |  | < 30 | inhibition at 30 µM [1, 4]: < 30% |
